{"source": "patent US12077503B2", "about": "“Substituted cyclic amides and their use as herbicides” (FMC CORPORATION, priority 2015, dated 2024)", "assay_in_all_cases": "Test C postemergence", "assay_type_in_all_cases": "in vivo", "details_in_all_cases": "scale 0 to 100, 0 no effect, 100 complete control", "key": {"[1]": {"system": "velvetleaf (Abutilon theophrasti)", "procedure,_shortened": "(§1)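 Seeds in loam-sand soil treated preemergence, or plants in peat-based medium sprayed postemergence at 2–18 cm (1- to 4-leaf stage), with compound in a non-phytotoxic solvent mixture containing surfactant. Greenhouse-held 13–15 d, then visually rated against controls on a 0–100 scale (0 = no effect, 100 = complete control); dash = not tested.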"}, "[2]": {"system": "oat, wild (wild oat, Avena fatua)", "procedure,_shortened": "as §1"}, "[3]": {"system": "ragweed (common ragweed, Ambrosia elatior)", "procedure,_shortened": "as §1"}, "[4]": {"system": "foxtail, giant (giant foxtail, Setaria faberii)", "procedure,_shortened": "as §1"}, "[5]": {"system": "waterhemp (common waterhemp, Amaranthus rudis)", "procedure,_shortened": "as §1"}, "[6]": {"system": "soybean (Glycine max)", "procedure,_shortened": "as §1"}, "[7]": {"system": "Galium (catchweed bedstraw, Galium aparine)", "procedure,_shortened": "as §1"}, "[8]": {"system": "nutsedge, yellow (yellow nutsedge, Cyperus esculentus)", "procedure,_shortened": "as §1"}, "[9]": {"system": "pigweed (Amaranthus retroflexus)", "procedure,_shortened": "as §1"}, "[10]": {"system": "morningglory (Ipomoea coccinea)", "procedure,_shortened": "as §1"}, "[11]": {"system": "barnyardgrass (Echinochloa crus-galli)", "procedure,_shortened": "as §1"}, "[12]": {"system": "oilseed rape (Brassica napus)", "procedure,_shortened": "as §1"}, "[13]": {"system": "lambsquarters (Chenopodium album)", "procedure,_shortened": "as §1"}, "[14]": {"system": "wheat (winter wheat, Triticum aestivum)", "procedure,_shortened": "as §1"}, "[15]": {"system": "blackgrass (Alopecurus myosuroides)", "procedure,_shortened": "as §1"}}, "data": [{"smiles": "CN1C[C@H](c2ccc(F)c(F)c2)[C@@H](C(=O)Nc2ccccc2F)C1=O", "note": "[Compound 596, (3S,4S)-4-(3,4-difluorophenyl)-N-(2-fluorophenyl)-1-methyl-2-oxo-3-pyrrolidinecarboxamide]", "values": [{"measurement": "Plant response rating, Velvetleaf", "setting": "[1]; 31 g ai/ha", "result": 35}, {"measurement": "Plant response rating, Velvetleaf", "setting": "[1]; 62 g ai/ha", "result": 35}, {"measurement": "Plant response rating, Velvetleaf", "setting": "[1]; 125 g ai/ha", "result": 50}, {"measurement": "Plant response rating, Velvetleaf", "setting": "[1]; 250 g ai/ha", "result": 55}, {"measurement": "Plant response rating, Oat, Wild", "setting": "[2]; 31 g ai/ha", "result": 0}, {"measurement": "Plant response rating, Oat, Wild", "setting": "[2]; 62 g ai/ha", "result": 0}, {"measurement": "Plant response rating, Oat, Wild", "setting": "[2]; 125 g ai/ha", "result": 0}, {"measurement": "Plant response rating, Oat, Wild", "setting": "[2]; 250 g ai/ha", "result": 5}, {"measurement": "Plant response rating, Ragweed", "setting": "[3]; 31 g ai/ha", "result": 0}, {"measurement": "Plant response rating, Ragweed", "setting": "[3]; 62 g ai/ha", "result": 0}, {"measurement": "Plant response rating, Ragweed", "setting": "[3]; 125 g ai/ha", "result": 0}, {"measurement": "Plant response rating, Ragweed", "setting": "[3]; 250 g ai/ha", "result": 15}, {"measurement": "Plant response rating, Foxtail, Giant", "setting": "[4]; 31 g ai/ha", "result": 10}, {"measurement": "Plant response rating, Foxtail, Giant", "setting": "[4]; 62 g ai/ha", "result": 20}, {"measurement": "Plant response rating, Foxtail, Giant", "setting": "[4]; 125 g ai/ha", "result": 50}, {"measurement": "Plant response rating, Foxtail, Giant", "setting": "[4]; 250 g ai/ha", "result": 80}, {"measurement": "Plant response rating, Waterhemp", "setting": "[5]; 31 g ai/ha", "result": 0}, {"measurement": "Plant response rating, Waterhemp", "setting": "[5]; 62 g ai/ha", "result": 0}, {"measurement": "Plant response rating, Waterhemp", "setting": "[5]; 125 g ai/ha", "result": 20}, {"measurement": "Plant response rating, Waterhemp", "setting": "[5]; 250 g ai/ha", "result": 30}, {"measurement": "Plant response rating, Soybean", "setting": "[6]; 31 g ai/ha", "result": 0}, {"measurement": "Plant response rating, Soybean", "setting": "[6]; 62 g ai/ha", "result": 0}, {"measurement": "Plant response rating, Soybean", "setting": "[6]; 125 g ai/ha", "result": 10}, {"measurement": "Plant response rating, Soybean", "setting": "[6]; 250 g ai/ha", "result": 0}, {"measurement": "Plant response rating, Galium", "setting": "[7]; 31 g ai/ha", "result": 40}, {"measurement": "Plant response rating, Galium", "setting": "[7]; 62 g ai/ha", "result": 45}, {"measurement": "Plant response rating, Galium", "setting": "[7]; 125 g ai/ha", "result": 60}, {"measurement": "Plant response rating, Galium", "setting": "[7]; 250 g ai/ha", "result": 60}, {"measurement": "Plant response rating, Nutsedge, Yellow", "setting": "[8]; 31 g ai/ha", "result": 0}, {"measurement": "Plant response rating, Nutsedge, Yellow", "setting": "[8]; 62 g ai/ha", "result": 0}, {"measurement": "Plant response rating, Nutsedge, Yellow", "setting": "[8]; 125 g ai/ha", "result": 10}, {"measurement": "Plant response rating, Nutsedge, Yellow", "setting": "[8]; 250 g ai/ha", "result": 10}, {"measurement": "Plant response rating, Pigweed", "setting": "[9]; 31 g ai/ha", "result": 10}, {"measurement": "Plant response rating, Pigweed", "setting": "[9]; 62 g ai/ha", "result": 10}, {"measurement": "Plant response rating, Pigweed", "setting": "[9]; 125 g ai/ha", "result": 35}, {"measurement": "Plant response rating, Pigweed", "setting": "[9]; 250 g ai/ha", "result": 30}, {"measurement": "Plant response rating, Morningglory", "setting": "[10]; 31 g ai/ha", "result": 0}, {"measurement": "Plant response rating, Morningglory", "setting": "[10]; 62 g ai/ha", "result": 10}, {"measurement": "Plant response rating, Morningglory", "setting": "[10]; 125 g ai/ha", "result": 25}, {"measurement": "Plant response rating, Morningglory", "setting": "[10]; 250 g ai/ha", "result": 50}, {"measurement": "Plant response rating, Barnyardgrass", "setting": "[11]; 31 g ai/ha", "result": 0}, {"measurement": "Plant response rating, Barnyardgrass", "setting": "[11]; 62 g ai/ha", "result": 30}, {"measurement": "Plant response rating, Barnyardgrass", "setting": "[11]; 125 g ai/ha", "result": 45}, {"measurement": "Plant response rating, Barnyardgrass", "setting": "[11]; 250 g ai/ha", "result": 65}, {"measurement": "Plant response rating, Oilseed Rape", "setting": "[12]; 31 g ai/ha", "result": 0}, {"measurement": "Plant response rating, Oilseed Rape", "setting": "[12]; 62 g ai/ha", "result": 0}, {"measurement": "Plant response rating, Oilseed Rape", "setting": "[12]; 125 g ai/ha", "result": 30}, {"measurement": "Plant response rating, Oilseed Rape", "setting": "[12]; 250 g ai/ha", "result": 30}, {"measurement": "Plant response rating, Lambsquarters", "setting": "[13]; 31 g ai/ha", "result": 35}, {"measurement": "Plant response rating, Lambsquarters", "setting": "[13]; 62 g ai/ha", "result": 35}, {"measurement": "Plant response rating, Lambsquarters", "setting": "[13]; 125 g ai/ha", "result": 40}, {"measurement": "Plant response rating, Lambsquarters", "setting": "[13]; 250 g ai/ha", "result": 55}, {"measurement": "Plant response rating, Wheat", "setting": "[14]; 31 g ai/ha", "result": 0}, {"measurement": "Plant response rating, Wheat", "setting": "[14]; 62 g ai/ha", "result": 0}, {"measurement": "Plant response rating, Wheat", "setting": "[14]; 125 g ai/ha", "result": 0}, {"measurement": "Plant response rating, Wheat", "setting": "[14]; 250 g ai/ha", "result": 0}, {"measurement": "Plant response rating, Blackgrass", "setting": "[15]; 31 g ai/ha", "result": 0}, {"measurement": "Plant response rating, Blackgrass", "setting": "[15]; 62 g ai/ha", "result": 0}, {"measurement": "Plant response rating, Blackgrass", "setting": "[15]; 125 g ai/ha", "result": 0}, {"measurement": "Plant response rating, Blackgrass", "setting": "[15]; 250 g ai/ha", "result": 10}]}]}
